Tested on: peripheral blood mononuclear cells (PBMC)
Assay: Microarray analysis (Human Genome U133 plus 2.0 array) of mRNA expression in PBMC treated with compound A
Format: cell-based
Details: 10 nM, ratio to control
Source text: Since it is not easy to obtain a cancer tissue clinically, the measurement of the marker in hemocytes readily obtainable in peripheral blood would be more useful. Specifically blood was taken from a normal individual (volunteer) and peripheral blood mononuclear cells were purified and treated with compound A, followed by measurement of change in expression of the gene (mRNA) with the microarray (Human Genome […] plus 2.0 array: Affymetrix).
Ficoll-Paque PLUS solution (Amersham, 17-1440-02) was slowly added to the blood taken (with heparin added) from a healthy individual to form a layer underneath the blood (15 ml of Ficoll-Paque PLUS solution was added to 25 ml of blood). After the mixture was centrifuged at 1500 rpm for 30 min, the upper part containing platelets was removed and then a layer containing mononuclear cells was transferred to another tube. The cells were suspended in PBS and centrifuged at 1500 rpm for 5 min, followed by removal of the supernatant. After these steps were repeated twice, the cells were again suspended in RPMI1640 (containing 10% FBS). The number of the cells was then counted.
The cells were suspended in the medium to 5×10^6 cells/ml and plated 1 ml per well of a 24-well plate. Immediately, 111 μl of compound A (ten times more concentrated than the final concentrations) was added to the well (four wells per each concentration tested). The cells were then cultured in an incubator with 5% carbon dioxide gas at 37° C. Two or four hours later, the supernatant was collected and centrifuged at 1500 rpm for five minutes. TRI reagent (SIGMA) (1 ml) was added to each well of the plate from which the supernatant was removed to harvest the cells, which was added to the centrifuged pellet to dissolve. RNA was purified in accordance with the protocol of TRI reagent. RNA was further purified using RNeasy (QIAGEN). Absorbance at 260 nm was measured to quantify an amount of RNA.
A .cel file for each sample was obtained by using GeneChip Operating Software Ver.1.2 (Affymetrix). The RMA method was applied to ten of the .cel files obtained in the microarray experiment. Log signal intensity at a gene level was obtained by normalization of that at a probe level. By subtracting a control value from log signal intensity for each case, the log signal intensity was converted into a log signal ratio to the control. Genes were narrowed down in the basis of a log signal ratio, and a signal value. Specifically, among genes showing that the P value was 5% or less; the expression level in the untreated (control) is 100 or more by signal value; and the expression level when treated with 10 nM of compound A both for two and four hours decreased by 50% or more, genes of which expression level decreased to 25% or less upon the two-hour treatment were picked out. The software used is R2.2.1 (http://www.r-project.org/), affy package 1.8.1 (http://www.bioconductor.org).
Among genes showing, upon the treatment with compound A, that the P value was 5% or less; the expression level in the untreated (control) is 100 or more by signal value; and the expression level when treated with 10 nM of compound A both for two and four hours decreased by 50% or more, genes of which expression level decreased to 25% or less upon the two-hour treatment, and results thereof were shown in Table 2. For each gene evaluated, gene name (Gene Name), abbreviated name (Gene Symbol), accession number (Accession), alias name (Synonym), Probe set number in Human Genome U133 Plus 2.0 Array (Human Genome U133 Plus 2.0 Array Probeset ID), the expression level upon the two-hour treatment with E7107 (E7107 (2 h)), and the expression level upon the four-hour treatment with E7107 (E7107 (4 h)) were respectively shown in Table 2.

Question: With `CCC(O)C(C)C1OC1CC(C)(O)/C=C/C=C(\C)C1OC(=O)CC(O)CCC(C)(O)C(OC(=O)N2CCN(C3CCCCCC3)CC2)/C=C/C1C` (stereo not drawn) [E7107, (8E,12E,14E)-7-((4-Cycloheptylpiperazin-1-yl)carbonyl)oxy-3,6,16,21-tetrahydroxy-6,10,12,16,20-pentamethyl-18,19-epoxytricosa-8,12,14-trien-11-olide] as the compound, how does the “AHSA2 mRNA expression level (226665_at)” value (2 h) read?
Answer: 0.21

Question: And the “ATXN1 mRNA expression level (242230_at)” value (2 h)?
Answer: 0.25

Question: What about the “C13orf31 mRNA expression level (228937_at)” value (2 h) of the same compound?
Answer: 0.19

Question: And the “C15orf48 mRNA expression level (223484_at)” value (2 h)?
Answer: 0.06

Question: What about the “CCRL2//LOC642312 mRNA expression level (211434_s_at)” value (2 h) of the same compound?
Answer: 0.22

Question: What about the “CLEC5A mRNA expression level (219890_at)” value (2 h) of the same compound?
Answer: 0.08

Question: What about the “CSF2RA mRNA expression level (210340_s_at)” value (2 h) of the same compound?
Answer: 0.10

Question: And the “CTSL1 mRNA expression level (202087_s_at)” value (2 h)?
Answer: 0.21

Question: What about the “DHRS9 mRNA expression level (223952_x_at)” value (2 h) of the same compound?
Answer: 0.25

Question: And the “DOK3 mRNA expression level (223553_s_at)” value (2 h)?
Answer: 0.23

Question: What about the “FPRL2 mRNA expression level (230422_at)” value (2 h) of the same compound?
Answer: 0.06

Question: What about the “GNA15 mRNA expression level (205349_at)” value (2 h) of the same compound?
Answer: 0.22

Question: What about the “GPR84 mRNA expression level (223767_at)” value (2 h) of the same compound?
Answer: 0.18

Question: What about the “GTF2H1 mRNA expression level (202451_at)” value (2 h) of the same compound?
Answer: 0.18

Question: What about the “HNRPA2B1 mRNA expression level (225107_at)” value (2 h) of the same compound?
Answer: 0.23

Question: What about the “HPSE mRNA expression level (222881_at)” value (2 h) of the same compound?
Answer: 0.18

Question: What about the “IQCG mRNA expression level (235347_at)” value (2 h) of the same compound?
Answer: 0.24

Question: What about the “LOC51315 mRNA expression level (233329_s_at)” value (2 h) of the same compound?
Answer: 0.21

Question: And the “MS4A7 mRNA expression level (224358_s_at)” value (2 h)?
Answer: 0.24

Question: And the “NLRP12 mRNA expression level (1554952_s_at)” value (2 h)?
Answer: 0.23

Question: And the “NRIP3 mRNA expression level (219557_s_at)” value (2 h)?
Answer: 0.07

Question: And the “NSMCE4A mRNA expression level (228506_at)” value (2 h)?
Answer: 0.24

Question: What about the “OLR1 mRNA expression level (210004_at)” value (2 h) of the same compound?
Answer: 0.05

Question: What about the “RAPH1 mRNA expression level (225188_at)” value (2 h) of the same compound?
Answer: 0.19

Question: And the “RBBP6 mRNA expression level (212781_at)” value (2 h)?
Answer: 0.23

Question: And the “SLC25A19 mRNA expression level (223222_at)” value (2 h)?
Answer: 0.18

Question: And the “SLC43A2 mRNA expression level (228918_at)” value (2 h)?
Answer: 0.17

Question: And the “TNFAIP6 mRNA expression level (206026_s_at)” value (2 h)?
Answer: 0.19

Question: And the “TNS1 mRNA expression level (221748_s_at)” value (2 h)?
Answer: 0.10

Question: And the “TRAPPC4 mRNA expression level (217959_s_at)” value (2 h)?
Answer: 0.18

Question: And the “Transcribed locus mRNA expression level (230098_at)” value (2 h)?
Answer: 0.22

Question: What about the “WSB1 mRNA expression level (201294_s_at)” value (2 h) of the same compound?
Answer: 0.20

Question: What about the “ZCCHC6 mRNA expression level (220933_s_at)” value (2 h) of the same compound?
Answer: 0.17

Question: And the “AHSA2 mRNA expression level (226665_at)” value (4 h)?
Answer: 0.15

Question: What about the “ATXN1 mRNA expression level (242230_at)” value (4 h) of the same compound?
Answer: 0.24

Question: And the “C13orf31 mRNA expression level (228937_at)” value (4 h)?
Answer: 0.11

Question: And the “C15orf48 mRNA expression level (223484_at)” value (4 h)?
Answer: 0.01

Question: And the “CCRL2//LOC642312 mRNA expression level (211434_s_at)” value (4 h)?
Answer: 0.35

Question: What about the “CLEC5A mRNA expression level (219890_at)” value (4 h) of the same compound?
Answer: 0.05

Question: And the “CSF2RA mRNA expression level (210340_s_at)” value (4 h)?
Answer: 0.06

Question: What about the “CTSL1 mRNA expression level (202087_s_at)” value (4 h) of the same compound?
Answer: 0.13

Question: What about the “DHRS9 mRNA expression level (223952_x_at)” value (4 h) of the same compound?
Answer: 0.31

Question: And the “DOK3 mRNA expression level (223553_s_at)” value (4 h)?
Answer: 0.26

Question: What about the “FPRL2 mRNA expression level (230422_at)” value (4 h) of the same compound?
Answer: 0.04

Question: And the “GNA15 mRNA expression level (205349_at)” value (4 h)?
Answer: 0.15

Question: And the “GPR84 mRNA expression level (223767_at)” value (4 h)?
Answer: 0.20

Question: What about the “GTF2H1 mRNA expression level (202451_at)” value (4 h) of the same compound?
Answer: 0.07

Question: And the “HNRPA2B1 mRNA expression level (225107_at)” value (4 h)?
Answer: 0.20

Question: And the “HPSE mRNA expression level (222881_at)” value (4 h)?
Answer: 0.29

Question: And the “IQCG mRNA expression level (235347_at)” value (4 h)?
Answer: 0.23

Question: And the “LOC51315 mRNA expression level (233329_s_at)” value (4 h)?
Answer: 0.13

Question: What about the “MS4A7 mRNA expression level (224358_s_at)” value (4 h) of the same compound?
Answer: 0.04

Question: And the “NLRP12 mRNA expression level (1554952_s_at)” value (4 h)?
Answer: 0.26

Question: What about the “NRIP3 mRNA expression level (219557_s_at)” value (4 h) of the same compound?
Answer: 0.29

Question: And the “NSMCE4A mRNA expression level (228506_at)” value (4 h)?
Answer: 0.18

Question: And the “OLR1 mRNA expression level (210004_at)” value (4 h)?
Answer: 0.02

Question: What about the “RAPH1 mRNA expression level (225188_at)” value (4 h) of the same compound?
Answer: 0.18

Question: What about the “RBBP6 mRNA expression level (212781_at)” value (4 h) of the same compound?
Answer: 0.17

Question: What about the “SLC25A19 mRNA expression level (223222_at)” value (4 h) of the same compound?
Answer: 0.20

Question: And the “SLC43A2 mRNA expression level (228918_at)” value (4 h)?
Answer: 0.08

Question: What about the “TNFAIP6 mRNA expression level (206026_s_at)” value (4 h) of the same compound?
Answer: 0.06

Question: And the “TNS1 mRNA expression level (221748_s_at)” value (4 h)?
Answer: 0.09

Question: And the “TRAPPC4 mRNA expression level (217959_s_at)” value (4 h)?
Answer: 0.07

Question: What about the “Transcribed locus mRNA expression level (230098_at)” value (4 h) of the same compound?
Answer: 0.14

Question: What about the “WSB1 mRNA expression level (201294_s_at)” value (4 h) of the same compound?
Answer: 0.17

Question: And the “ZCCHC6 mRNA expression level (220933_s_at)” value (4 h)?
Answer: 0.08
